Source: paper PMC5824694, “Evaluation of agonist and antagonist radioligands for somatostatin receptor imaging of breast cancer using positron emission tomography” (EJNMMI Radiopharmacy and Chemistry, 2017)
Read-outs that look alike come from different tables or passages of the source.

What was measured:
[1] = biological target: T1, sstr2 receptors on ZR-75-1 cells (Homo sapiens, UniProt P30874); assay: saturation binding assay on ZR-75-1 cells; settings: ZR-75-1 cells in vitro; 1 h at 25 °C; one-site binding model
T1 construct: we used a human breast cancer cell model with endogenous sstr2 expression (ZR-75-1 cells); host or cells: ZR-75-1 cells

[2] = biodistribution and PET/CT in ZR-75-1 tumor-bearing NOD scid gamma mice; settings: female, mouse, in vivo, iv, total radioactivity; for tissue uptake at 1 h: NOD scid gamma (NOD.Cg-Prkdc^sci Il2rg^tm1Wjl/SzJ); for tissue to tissue ratio at 1 h: NOD scid gamma (NOD.Cg-Prkdc scid Il2rg tm1Wjl/SzJ)
Text: (§1) All animal studies were done in compliance with the Canadian Council on Animal Care guidelines and were approved by the Animal Care Committee of University of British Columbia (Vancouver, Canada). Immunodeficient female NOD.Cg-Prkdc ^sci Il2rg ^tm1Wjl/SzJ mice (NOD scid gamma) were obtained from an in-house breeding colony at the Animal Resource Centre of the BC Cancer Agency Research Centre and also from Jackson Laboratory. To sustain the growth of the ER-positive ZR-75-1 cell model, animals were administered a 1.7 mg, 60-day slow-release estrogen pellet from Innovative Research of America (Sarasota, FL) subcutaneously in the dorsal space of the neck. 3–5 days post pellet-implant, 10 million ZR-75-1 cells were re-suspended in a mixture of 1:1 PBS and Matrigel (Corning Inc., Corning, NY) and inoculated subcutaneously on the right shoulder. Tumors were grown for 5–6 weeks, until they reached a size of 7–11 mm in diameter.
(§2) Mice were sedated using 2 mL/min of O2 with 2% isoflurane and injected intravenously (i.v.) with 1–2 MBq of ^68Ga-labeled peptide. Mice were allowed to roam freely for 60 min prior to euthanasia by 2 mL/min of O2 with 4% isoflurane followed by CO2 asphyxiation. Blood was promptly collected by cardiac puncture and weighted. Internal organs were harvested, rinsed in PBS, patted dry and weighed. Organ uptake was measured either in a WIZARD 2480 gamma counter (Perkin Elmer) or Cobra II auto-gamma counter (Packard), both calibrated with standards of known ^68Ga activity. Uptake was normalized to the injected dose and to the respective weight of the organ, and expressed as percent injected dose per gram of tissue (%ID/g).
(§3) Tumor-bearing mice were injected i.v. with 8–9 MBq of ^68Ga-labeled peptide. Static PET images were acquired 55 min post-injection for 10 min using an Inveon microPET/CT scanner (Siemens, Erlangen, Germany) as described previously (Lin et al. [2015]). A baseline CT scan was used for localization and attenuation correction. Mice were promptly euthanized after imaging, and biodistribution studies were undertaken as described above.

[3] = system: ZR-75-1 tumors; assay: as above; settings: mouse, in vivo, iv; for Kidneys uptake / Tumor uptake: female, NOD scid gamma (NOD.Cg-Prkdc^sci Il2rg^tm1Wjl/SzJ)
Text: as §1, §2, §3

[4] = system: NET; settings: human, in vivo; cited from earlier work
[5] = system: sstr2; set-up: method as in Reubi et al. [2000]; settings: ref Reubi et al. [2000]; cited from earlier work
[6] = system: sstr2; set-up: method as in Fani et al. [2012b]; settings: autoradiography approach; ref Fani et al. [2012b]; cited from earlier work

T1 sequence (P30874 whole entry): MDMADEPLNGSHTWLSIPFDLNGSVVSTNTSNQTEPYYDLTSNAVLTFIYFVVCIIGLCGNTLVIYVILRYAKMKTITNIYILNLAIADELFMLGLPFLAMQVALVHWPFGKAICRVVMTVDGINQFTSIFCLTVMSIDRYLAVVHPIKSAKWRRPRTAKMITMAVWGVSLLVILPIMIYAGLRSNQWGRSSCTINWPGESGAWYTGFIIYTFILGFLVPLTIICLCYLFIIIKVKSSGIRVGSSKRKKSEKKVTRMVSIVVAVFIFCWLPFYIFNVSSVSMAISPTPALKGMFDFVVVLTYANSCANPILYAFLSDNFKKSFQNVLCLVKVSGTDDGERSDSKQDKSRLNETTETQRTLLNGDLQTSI

Row | SMILES | tissue uptake at 1 h ([2]; Blood uptake) [%ID/g] | tissue uptake at 1 h ([2]; Bone uptake) [%ID/g] | tissue uptake at 1 h ([2]; Fat uptake) [%ID/g] | tissue uptake at 1 h ([2]; Heart uptake) [%ID/g] | tissue uptake at 1 h ([2]; Intestines uptake) [%ID/g] | tissue uptake at 1 h ([2]; Kidneys uptake) [%ID/g] | tissue uptake at 1 h ([2]; Liver uptake) [%ID/g] | tissue uptake at 1 h ([2]; Lungs uptake) [%ID/g] | tissue uptake at 1 h ([2]; Ovaries uptake) [%ID/g] | tissue uptake at 1 h ([2]; Pancreas uptake) [%ID/g] | tissue uptake at 1 h ([2]; Spleen uptake) [%ID/g] | tissue uptake at 1 h ([2]; Stomach uptake) [%ID/g] | tissue uptake at 1 h ([2]; Uterus uptake) [%ID/g] | Kidneys uptake ([3]; 1 h) [%ID/g] | other results
1 | C[C@@H](O)[C@@H]1NC(=O)[C@H](CCCCN)NC(=O)[C@@H](Cc2ccc(NC(N)=O)cc2)NC(=O)[C@H](Cc2ccc(NC(=O)[C@@H]3CC(=O)NC(=O)N3)cc2)NC(=O)[C@H](NC(=O)[C@H](Cc2ccc(Cl)cc2)NC(=O)CCC(C(=O)O)N2CCN(CC(=O)O)CCN(CC(=O)O)CC2)CSSC[C@@H](C(=O)N[C@H](Cc2ccc(O)cc2)C(N)=O)NC1=O (stereo partly drawn) [^67/natGa-NODAGA-JR11, metal not drawn] |  |  |  |  |  |  |  |  |  |  |  |  |  |  | Bmax (number of binding sites) [1]: 4.39 ± 0.32 × 10^4 sites/cell
2 | C[C@@H](O)[C@H](NC(=O)[C@@H]1CSSC[C@H](NC(=O)[C@@H](Cc2ccccc2)NC(=O)CN2CCN(CC(=O)O)CCN(CC(=O)O)CCN(CC(=O)O)CC2)C(=O)N[C@@H](Cc2ccc(O)cc2)C(=O)N[C@H](Cc2c[nH]c3ccccc23)C(=O)N[C@@H](CCCCN)C(=O)N[C@@H]([C@@H](C)O)C(=O)N1)C(=O)O [^68Ga-DOTATATE, ^68Ga-DOTA-Tyr^3-octreotate, metal not drawn] | 0.35 | 0.25 | 0.28 | 0.67 | 7.35 | 8.5 ± 1.7 | 1.95 | 28.7 | 0.89 | 51.6 | 0.84 | 8.29 | 0.84 | 8.45 | Brain uptake ([3]; 1 h): 0.03 %ID/g
3 | C[C@@H](O)[C@@H]1NC(=O)[C@H](CCCCN)NC(=O)[C@@H](Cc2c[nH]c3ccccc23)NC(=O)[C@H](Cc2ccc(O)cc2)NC(=O)[C@@H](NC(=O)[C@@H](Cc2ccccc2)NC(=O)CN2CCN(CC(=O)O)CCN(CC(=O)O)CCN(CC(=O)O)CC2)CSSC[C@@H](C(=O)N[C@H](CO)[C@@H](C)O)NC1=O [^68Ga-DOTATOC, ^68Ga-DOTA-Tyr^3-octreotide, metal not drawn] | 0.45 | 0.2 | 0.18 | 0.3 | 2.39 | 9.3 ± 1.7 | 0.71 | 22.9 | 0.51 | 11 | 0.46 | 2.75 | 0.54 | 9.27 | tissue uptake at 1 h ([2]; Adrenals uptake): 9.52 %ID/g; tissue uptake at 1 h ([2]; Brain uptake): 0.03 %ID/g; tissue uptake at 1 h ([2]; Muscle uptake): 0.11 %ID/g; tissue uptake at 1 h ([2]; Tumor uptake): 18.4 ± 2.9 %ID/g; Tumor uptake ([3]; 1 h): 18.44 %ID/g
4 | C[C@@H](O)[C@@H]1NC(=O)[C@H](CCCCN)NC(=O)[C@@H](Cc2ccc(NC(N)=O)cc2)NC(=O)[C@H](Cc2ccc(NC(=O)[C@@H]3CC(=O)NC(=O)N3)cc2)NC(=O)[C@H](NC(=O)[C@H](Cc2ccc(Cl)cc2)NC(=O)CCC(C(=O)O)N2CCN(CC(=O)O)CCN(CC(=O)O)CC2)CSSC[C@@H](C(=O)N[C@H](Cc2ccc(O)cc2)C(N)=O)NC1=O (stereo partly drawn) [^68Ga-NODAGA-JR11, metal not drawn] | 0.8 | 0.26 | 0.23 | 0.46 | 0.9 | 14.1 ± 1.7 | 0.99 | 4.72 | 0.67 | 9.29 | 0.39 | 1.36 | 0.86 | 14.12 | tissue to tissue ratio at 1 h ([2]; Tumor to Background Ratio: Blood (tumor-to-blood)): 15.6; tissue to tissue ratio at 1 h ([2]; Tumor to Background Ratio: Kidneys): 0.87; tissue to tissue ratio at 1 h ([2]; Tumor to Background Ratio: Muscle (tumor-to-muscle)): 45.1; tissue uptake at 1 h ([2]; Adrenals uptake): 2 %ID/g; tissue uptake at 1 h ([2]; Brain uptake): 0.05 %ID/g; tissue uptake at 1 h ([2]; Muscle uptake): 0.28 %ID/g; tissue uptake at 1 h ([2]; Tumor uptake): 12.2 ± 0.8 %ID/g; Tumor uptake ([3]; 1 h): 12.21 %ID/g; Tumor to Background Ratio: Blood (tumor-to-blood) [3]: 15.6 ± 2.2; Tumor to Background Ratio: Muscle (tumor-to-muscle) [3]: 45.2 ± 11.6; higher SUVmax uptake compared to ^68Ga-DOTATOC [4]: ~ 15%
7 | C[C@@H](O)[C@@H]1NC(=O)[C@H](CCCCN)NC(=O)[C@@H](Cc2ccc(NC(N)=O)cc2)NC(=O)[C@H](Cc2ccc(NC(=O)[C@@H]3CC(=O)NC(=O)N3)cc2)NC(=O)[C@H](NC(=O)[C@H](Cc2ccc(Cl)cc2)NC(=O)CCC(C(=O)O)N2CCN(CC(=O)O)CCN(CC(=O)O)CC2)CSSC[C@@H](C(=O)N[C@H](Cc2ccc(O)cc2)C(N)=O)NC1=O (stereo partly drawn) [^natGa-NODAGA-JR11, metal not drawn] |  |  |  |  |  |  |  |  |  |  |  |  |  |  | IC50 [6]: 1.2 ± 0.2 nM
